Experimental data published in patent US12433843B2, “Biomolecular composites comprising modified cell ghosts” (National University of Singapore, priority 2017, dated 2025).

Test system: CT26 mouse colon carcinoma model
Experiment: In vivo co-localisation of Cy7 labelled nCVTs, IVIS imaging
Procedure: The nCVTs labelled with cyanine 7 NHS Monoester dye (Cy7) of Example 7 were compared with similarly labeled liposomes of the same lipid constitution (Liposomes produced for loading and in vitro testing were prepared with 1.95 mg of DPPC and 0.05 mg of Cholesterol. Liposomes produced for in vivo experiments were PEGylated, and prepared with 2.61 mg of DPPC, 1.61 mg of DSPE-PEG2000 and 0.78 mg of cholesterol.) The samples were then injected through the tail vein of a CT26 mouse colon carcinoma model, with tumour formation subcutaneously on the back of the mouse.
Three groups of mice were injected with Cy7 labelled nCVTs, Cy7 labelled liposomes and free dye. After 24 hours, the mice were imaged using the In Vivo Imaging Systems (IVIS) spectrum.

**Q.** cyanine 7 NHS Monoester dye [free dye] was tested. Which “Relative fluorescence intensity of excised liver and kidney” value (24 hours, liposomes are PEGylated) did it give?
**A.** reduced fluorescence intensity

**Q.** And the “Accumulation of fluorescence at the tumour site (IVIS, whole mice)” value (tail vein injection, after 24 hours, liposomes are PEGylated)?
**A.** does not accumulate in the tumours

**Q.** And the Clearance (tail vein injection, mouse)?
**A.** rapidly cleared

**Q.** What about the “Elimination from the mouse” value (within 24 hours) of the same substance?
**A.** largely eliminated
